Results reported in article doi:10.1101/2025.10.20.683482v1 (biorxiv, 2025).

Assays:
MDA-MB 231 = test: cells; details: Homo sapiens, MDA-MB-231, 72 h, read-out: MDA-MB 231
67nR = test: cells; details: 72 h, read-out: 67nR
MIA PaCa = test: cells; details: Homo sapiens, MIA PaCa-2, 72 h, read-out: MIA PaCa
BxPC3 = test: cells; details: Homo sapiens, BXPC-3, 72 h, read-out: BxPC3
4T1 = test: cells; details: Mus musculus, 4T1, 72 h, read-out: 4T1
[1] = target: Human recombinant Methionine Aminopeptidase 2 (MetAp2) (Homo sapiens, UniProt P50579); test: fluorometric H-Met-AMC hydrolysis; type: biochemical
Human recombinant Methionine Aminopeptidase 2 (MetAp2), sequence (P50579 2-478): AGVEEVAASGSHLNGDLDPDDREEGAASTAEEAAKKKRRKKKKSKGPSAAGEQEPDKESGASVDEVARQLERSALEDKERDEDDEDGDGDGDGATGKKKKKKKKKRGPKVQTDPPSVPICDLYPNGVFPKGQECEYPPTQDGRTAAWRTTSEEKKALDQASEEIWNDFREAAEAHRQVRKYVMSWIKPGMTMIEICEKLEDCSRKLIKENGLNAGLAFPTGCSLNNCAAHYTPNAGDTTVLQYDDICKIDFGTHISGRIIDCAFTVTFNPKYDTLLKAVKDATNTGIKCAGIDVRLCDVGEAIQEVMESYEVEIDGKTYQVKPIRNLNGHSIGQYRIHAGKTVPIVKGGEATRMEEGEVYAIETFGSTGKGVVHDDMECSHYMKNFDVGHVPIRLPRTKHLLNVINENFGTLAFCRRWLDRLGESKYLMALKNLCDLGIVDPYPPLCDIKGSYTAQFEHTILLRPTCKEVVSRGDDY

SMILES	IC50 (MDA-MB 231) [µM]	IC50 (67nR) [µM]	IC50 (MIA PaCa) [µM]	IC50 (BxPC3) [µM]	IC50 (4T1) [µM]	IC50 [1] [µM]
O=[N+]([O-])c1ccc(O)c2ncccc12 [compound 1, 5-nitroquinolin-8-ol]	20.4 ± 1.22	16.8 ± 2.74	11.5 ± 2.06	13.9 ± 1.77	4.67 ± 1.13	
CC(C)(C)[Si](C)(C)Oc1ccc([N+](=O)[O-])c2cccnc12 [compound 2]	19.2 ± 1.52	23.3 ± 1.5	10.4 ± 2.26	15.2 ± 2.01	4.92 ± 1.63	4.3
CC(C)[Si](Oc1ccc([N+](=O)[O-])c2cccnc12)(C(C)C)C(C)C [compound 3]	17.3 ± 1.07	14.4 ± 2.97	9.71 ± 2.96	16.7 ± 1.73	2.76 ± 0.21	2.86
CC(C)(C)[Si](Oc1ccc([N+](=O)[O-])c2cccnc12)(c1ccccc1)c1ccccc1 [compound 4]	15.9 ± 1.47	15.6 ± 2.21	10.4 ± 1.56	12.8 ± 1.09	4.6 ± 2.41	3.42
CS(=O)(=O)Oc1ccc([N+](=O)[O-])c2cccnc12 [compound 5]	13.1 ± 1.96	25.2 ± 1.96	13.8 ± 0.85	25.6 ± 3.35	4.22 ± 0.32	
O=[N+]([O-])c1ccc(OS(=O)(=O)C(F)(F)F)c2ncccc12 [compound 6]	13.8 ± 2.98	10.3 ± 1.45	9.63 ± 2.35	11.7 ± 1.64	4.13 ± 1.17	> 100
C[Si](C)(C)CCOCOc1ccc([N+](=O)[O-])c2cccnc12 [compound 7]	34.7 ± 2.17		28.2 ± 3.35	18.1 ± 2.86	2.43 ± 1.05	21.1
O=[N+]([O-])c1ccc(OCOCc2ccccc2)c2ncccc12 [compound 9]	> 100		60.2 ± 1.52	44.1 ± 2.09	25.4 ± 3.1	92.1
